PubChem BioAssay (NCI)
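Tested at 5 concentrations; 48 h exposure; 96-well plates; endpoints linearly interpolated, else capped at highest concentration. TGI denotes the concentration required for complete inhibition of growth.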 Where a SMILES comes first, the peptide text is derived from it. The star is where a group is joined. Boc = CC(C)(C)OC(=O)*; OSu = O=C1CCC(=O)N1O*

Tests used:
Assay in all cases: NCI-60 cell line screen, 48 h
BT-549 breast = test system: BT-549 breast
HT29 colon = test system: HT29 colon
OVCAR-8 ovarian = test system: OVCAR-8 ovarian
HCT-15 colon = test system: HCT-15 colon
ACHN renal = test system: ACHN renal
NCI-H460 lung = test system: NCI-H460 lung
HOP-62 NSCLC = test system: HOP-62 NSCLC
A549 NSCLC = test system: A549 NSCLC
COLO 205 colon = test system: COLO 205 colon
MCF7 breast = test system: MCF7 breast
HCT-116 colon = test system: HCT-116 colon
RPMI-8226 leukemia = test system: RPMI-8226 leukemia
MALME-3M melanoma = test system: MALME-3M melanoma
NCI-H23 lung = test system: NCI-H23 lung
PC-3 prostate = test system: PC-3 prostate
SK-MEL-28 melanoma = test system: SK-MEL-28 melanoma
MDA-MB-231 breast = test system: MDA-MB-231 breast
MOLT-4 leukemia = test system: MOLT-4 leukemia
SNB-75 CNS = test system: SNB-75 CNS
UACC-257 melanoma = test system: UACC-257 melanoma
HL-60(TB) leukemia = test system: HL-60(TB) leukemia
UO-31 renal = test system: UO-31 renal
IGROV1 ovarian = test system: IGROV1 ovarian
M14 melanoma = test system: M14 melanoma
KM12 colon = test system: KM12 colon
SR leukemia = test system: SR leukemia
SK-MEL-5 melanoma = test system: SK-MEL-5 melanoma
786-0 renal = test system: 786-0 renal
K-562 leukemia = test system: K-562 leukemia
EKVX NSCLC = test system: EKVX NSCLC
OVCAR-5 ovarian = test system: OVCAR-5 ovarian
TK-10 renal = test system: TK-10 renal
U251 CNS = test system: U251 CNS
SN12C renal = test system: SN12C renal
HCC-2998 colon = test system: HCC-2998 colon
HS 578T breast = test system: HS 578T breast
MDA-N = test system: MDA-N
NCI-H226 lung = test system: NCI-H226 lung
T-47D breast = test system: T-47D breast
SNB-19 CNS = test system: SNB-19 CNS
CCRF-CEM leukemia = test system: CCRF-CEM leukemia
UACC-62 melanoma = test system: UACC-62 melanoma
SK-MEL-2 melanoma = test system: SK-MEL-2 melanoma
A498 renal = test system: A498 renal
RXF 393 renal = test system: RXF 393 renal
SW-620 colon = test system: SW-620 colon
HOP-92 NSCLC = test system: HOP-92 NSCLC
NCI/ADR-RES ovarian = test system: NCI/ADR-RES ovarian
OVCAR-3 ovarian = test system: OVCAR-3 ovarian
MDA-MB-435 = test system: MDA-MB-435
SF-539 CNS = test system: SF-539 CNS
OVCAR-4 ovarian = test system: OVCAR-4 ovarian
CAKI-1 renal = test system: CAKI-1 renal
SF-295 CNS = test system: SF-295 CNS
SF-268 CNS = test system: SF-268 CNS
SK-OV-3 ovarian = test system: SK-OV-3 ovarian
LOX IMVI melanoma = test system: LOX IMVI melanoma
DU-145 prostate = test system: DU-145 prostate

Measured: TGI

CC(C)(C)OC(=O)NC(Cc1ccc(O)cc1)C(=O)NC(CCCCN)C(=O)NC(Cc1ccc(O)cc1)C(=O)NC(CCCCN)C(=O)ON1C(=O)CCC1=O (centres undefined) (Boc-YKYK-OSu; configuration not given here)
not listed: NCI/ADR-RES ovarian | OVCAR-3 ovarian | MDA-MB-435 | SF-539 CNS | OVCAR-4 ovarian | CAKI-1 renal | SF-295 CNS | SF-268 CNS | SK-OV-3 ovarian | LOX IMVI melanoma | DU-145 prostate
> 100 µM: all other assays above

CC1(C)CC2(C)CC1CC2O (centres undefined)
not listed: ACHN renal | NCI-H460 lung | T-47D breast | SK-MEL-2 melanoma | A498 renal | HOP-92 NSCLC
> 100 µM: all other assays above
